# According to ChEMBL document CHEMBL1201862, “PubChem BioAssay data set” (2004):
#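 Following 48 hours of exposure in 96-well plates, responses at five concentrations were used to interpolate endpoints linearly. GI50 is the concentration that inhibits growth by half.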 Activity calls are given as the source filed them. Rule as the data show it: active = GI50 up to about 1.1 µM and inactive = higher.
# Legend:
# Test in all cases: DTP human tumour cell line panel, 48 h
# 786-0 = tested on: 786-0
# CCRF-CEM = tested on: CCRF-CEM
# COLO 205 = tested on: COLO 205
# EKVX = tested on: EKVX
# HCC 2998 = tested on: HCC 2998
# HCT-15 = tested on: HCT-15
# HT-29 = tested on: HT-29
# LOX IMVI = tested on: LOX IMVI
# M14 = tested on: M14
# MOLT-4 = tested on: MOLT-4
# NCI-H460 = tested on: NCI-H460
# NCI/ADR-RES = tested on: NCI/ADR-RES
# OVCAR-4 = tested on: OVCAR-4
# OVCAR-5 = tested on: OVCAR-5
# RPMI-8226 = tested on: RPMI-8226
# SK-MEL-2 = tested on: SK-MEL-2
# SK-OV-3 = tested on: SK-OV-3
# SNB-19 = tested on: SNB-19
# SW-620 = tested on: SW-620
# UACC-257 = tested on: UACC-257
Structure (SMILES),GI50 (786-0),GI50 (CCRF-CEM),GI50 (COLO 205),GI50 (EKVX),GI50 (HCC 2998),GI50 (HCT-15) [µM],GI50 (HT-29),GI50 (LOX IMVI),GI50 (M14),GI50 (MOLT-4),GI50 (NCI-H460),GI50 (NCI/ADR-RES),GI50 (OVCAR-4),GI50 (OVCAR-5),GI50 (RPMI-8226),GI50 (SK-MEL-2),GI50 (SK-OV-3),GI50 (SNB-19),GI50 (SW-620),GI50 (UACC-257)
O=NN(CCCl)C(=O)NC1CCC(CC2CCC(NC(=O)N(CCCl)N=O)CC2)CC1 (stereo not drawn),13.2 µM (inactive),1.05 µM (active),> 48.1 µM (inactive),> 63.4 µM (inactive),> 100 µM (inactive),39.9,> 100 µM (inactive),0.91 µM (active),96.8 µM (inactive),1.21 µM (inactive),1.74 µM (inactive),24.3 µM (inactive),28.8 µM (inactive),> 100 µM (inactive),1.96 µM (inactive),39.1 µM (inactive),2.23 µM (inactive),12.2 µM (inactive),23.3 µM (inactive),3.29 µM (inactive)
c1ccc2c3ccn4ccc5c6ccccc6[nH]c5c4c-3nc2c1,0.163 µM (active),0.31 µM (active),0.583 µM (active),1.02 µM (active),0.453 µM (active),0.344,0.391 µM (active),0.202 µM (active),1.85 µM (inactive),1.42 µM (inactive),0.498 µM (active),1.72 µM (inactive),0.394 µM (active),1.57 µM (inactive),0.255 µM (active),1.72 µM (inactive),1.52 µM (inactive),1.49 µM (inactive),0.169 µM (active),2 µM (inactive)
CC#CC#C/C=C1/O[C@]2(CCC(OC(=O)CC(C)C)CO2)[C@@H]2O[C@H]12 (stereo partly drawn),20.9 µM (inactive),7.69 µM (inactive),–,28.9 µM (inactive),19.5 µM (inactive),21,18.2 µM (inactive),16.2 µM (inactive),21.9 µM (inactive),18.7 µM (inactive),36.1 µM (inactive),28.4 µM (inactive),29.6 µM (inactive),28.2 µM (inactive),19.7 µM (inactive),21.6 µM (inactive),> 100 µM (inactive),61.7 µM (inactive),19.2 µM (inactive),30.3 µM (inactive)
CC(=O)NC1COC(COC(=O)CCCCCCCCCCNC(=O)c2ccc([N+](=O)[O-])c3c(=O)c4ccccc4[nH]c23)C(O)C1OC(C)C(=O)NC(C(=O)NC(CCC(N)=O)C(=O)OCc1ccccc1)C(C)C (stereo not drawn),15 µM (inactive),20.8 µM (inactive),18.8 µM (inactive),8.69 µM (inactive),5.96 µM (inactive),11.2,6.67 µM (inactive),11.5 µM (inactive),35 µM (inactive),18.6 µM (inactive),16.9 µM (inactive),32.9 µM (inactive),8.26 µM (inactive),36 µM (inactive),4.97 µM (inactive),11 µM (inactive),39.2 µM (inactive),6.03 µM (inactive),26.6 µM (inactive),15.3 µM (inactive)
O=C(N/C=C1\C(=O)Oc2ccccc2C1=O)Oc1ccccc1,23.7 µM (inactive),25 µM (inactive),41.4 µM (inactive),27.7 µM (inactive),24.8 µM (inactive),23.7,40.8 µM (inactive),25.1 µM (inactive),19.2 µM (inactive),24.9 µM (inactive),33.9 µM (inactive),27.4 µM (inactive),22.5 µM (inactive),46.1 µM (inactive),91.4 µM (inactive),14.5 µM (inactive),6.27 µM (inactive),30.6 µM (inactive),30.8 µM (inactive),31 µM (inactive)
COc1cc2cc(C(=O)Nc3cc4n(n3)-c3ccccc3C4)[nH]c2c(OC)c1OC,8.39 µM (inactive),1.38 µM (inactive),3.06 µM (inactive),2.17 µM (inactive),10.4 µM (inactive),2.52,11.9 µM (inactive),4.68 µM (inactive),2 µM (inactive),1.03 µM (active),1.64 µM (inactive),1.25 µM (inactive),1.24 µM (inactive),8.93 µM (inactive),1.06 µM (active),2.3 µM (inactive),6.25 µM (inactive),9.48 µM (inactive),7.08 µM (inactive),2.9 µM (inactive)
C/C(=N\Nc1ncnc2ccccc12)c1ccccn1,< 0.0236 µM (active),< 0.01 µM (active),< 0.01 µM (active),< 0.0169 µM (active),0.105 µM (active),< 0.0197,0.0182 µM (active),0.0194 µM (active),0.02 µM (active),< 0.0136 µM (active),0.0294 µM (active),< 0.0168 µM (active),10.7 µM (inactive),1.61 µM (inactive),0.019 µM (active),2.79 µM (inactive),0.0299 µM (active),0.802 µM (active),< 0.0267 µM (active),< 0.0161 µM (active)
CC(NC(=O)NC(C)(C)C)NC(=O)C(N)CC(=O)O (stereo not drawn),> 100 µM (inactive),> 100 µM (inactive),> 100 µM (inactive),> 100 µM (inactive),> 10 µM (inactive),> 100,> 100 µM (inactive),> 100 µM (inactive),> 100 µM (inactive),> 100 µM (inactive),> 100 µM (inactive),> 100 µM (inactive),> 100 µM (inactive),> 100 µM (inactive),> 100 µM (inactive),> 100 µM (inactive),15.8 µM (inactive),> 100 µM (inactive),> 100 µM (inactive),> 100 µM (inactive)
Cc1c(C(=O)NNc2ccccc2)n2c(S)nnc2c2ccccc12,> 100 µM (inactive),> 100 µM (inactive),> 100 µM (inactive),> 100 µM (inactive),71.8 µM (inactive),> 100,> 100 µM (inactive),> 100 µM (inactive),> 100 µM (inactive),83.2 µM (inactive),> 100 µM (inactive),> 100 µM (inactive),> 100 µM (inactive),> 100 µM (inactive),58.2 µM (inactive),> 100 µM (inactive),> 100 µM (inactive),> 100 µM (inactive),> 100 µM (inactive),> 100 µM (inactive)
CC(C)c1cc2c(c(O)c1O)[C@@]1(C(=O)O)CCCC(C)(C)[C@@H]1CC2 [CARNOSIC ACID],31 µM (inactive),3.18 µM (inactive),24.2 µM (inactive),15.9 µM (inactive),13.2 µM (inactive),27.3,16.3 µM (inactive),19.6 µM (inactive),–,11.8 µM (inactive),19.9 µM (inactive),15.6 µM (inactive),39.5 µM (inactive),20.8 µM (inactive),7.48 µM (inactive),18.9 µM (inactive),37.3 µM (inactive),> 10 µM (inactive),31.8 µM (inactive),14.6 µM (inactive)
